The CheMixHub drug solubility set

Experiment: xn = mol fraction of the nth substance listed, in the solute-free solvent

Cc1nc(CCl)nc2ccccc12 + CC(C)=O + CCCCCC
solubility (g/100 g solution)
Conditions	x2 = 0.144	x2 = 0.266	x2 = 0.403	x2 = 0.556	x2 = 0.729
281.15 K	5.18	8.5	12.8	17.2	22.3
286.15 K	6.57	10.8	15.5	21.2	27.1
291.15 K	8.19	13.3	19.2	25.8	32.3
296.15 K	10.3	16.2	22.9	30.4	39.2
301.15 K	12.7	19.9	28.3	36.2	44.9
306.15 K	15.6	23.9	33.3	42.4	51.9
311.15 K	18.9	28.3	38.4	48.4	58.8
316.15 K	22.5	33.1	43.7	54.6	65
321.15 K	26.6	37.2	49	60.7	71
326.15 K	30.9	42.9	54.4	65.4	75.5
331.15 K	34.9	47.5	59	70.3	79.5

CC(=O)Nc1ccc(OC(=O)c2ccccc2OC(C)=O)cc1 + CN1CCCC1=O + O
solubility (g/100 g solution)
Conditions	278.15 K	283.15 K	288.15 K	293.15 K	298.15 K	303.15 K	308.15 K	313.15 K	318.15 K
x2 = 0.0198	0.0101	0.0143	0.02	0.0278	0.0388	0.0522	0.0688	0.0923	0.122
x2 = 0.04347	0.0672	0.0901	0.121	0.159	0.209	0.268	0.349	0.446	0.569
x2 = 0.07228	0.275	0.355	0.448	0.581	0.725	0.903	1.13	1.39	1.7
x2 = 0.1081	0.8	0.998	1.25	1.51	1.85	2.22	2.69	3.19	3.81
x2 = 0.1538	1.62	1.95	2.37	2.85	3.4	4.01	4.67	5.48	6.35
x2 = 0.2143	2.87	3.37	3.94	4.63	5.38	6.15	7.12	8.13	9.18
x2 = 0.2979	4.29	4.95	5.76	6.59	7.51	8.56	9.7	10.8	12.1
x2 = 0.421	5.72	6.53	7.43	8.43	9.49	10.7	11.8	13.2	14.5
x2 = 0.6207	6.55	7.48	8.44	9.55	10.7	11.9	13.3	14.7	16.1

O=c1[nH]cc(F)c(=O)[nH]1 + O + C1CCOC1
solubility (g/100 g solution)
Conditions	283.15 K	288.15 K	293.15 K	298.15 K	303.15 K	308.15 K	313.15 K	318.15 K	323.15 K
x2 = 0.5001	0.119	0.145	0.171	0.198	0.236	0.281	0.337	0.424	0.513
x2 = 0.7273	0.219	0.264	0.307	0.36	0.423	0.498	0.61	0.721	0.868
x2 = 0.8572	0.382	0.44	0.504	0.585	0.675	0.811	0.97	1.08	1.3
x2 = 0.9412	0.615	0.702	0.795	0.91	1.05	1.22	1.45	1.74	1.93

COC(=O)C1=C(C)NC(C)=C(C(=O)OCC(C)C)C1c1ccccc1[N+](=O)[O-] (configuration not stated) + CC#N + O
solubility (g/100 g solution)
Conditions	278.15 K	283.15 K	288.15 K	293.15 K	298.15 K	303.15 K	308.15 K	313.15 K	318.15 K
x2 = 0.04651	0.165	0.218	0.288	0.377	0.488	0.61	0.767	0.973	1.21
x2 = 0.0989	0.678	0.855	1.1	1.36	1.7	2.08	2.53	3.12	3.73
x2 = 0.1583	1.3	1.62	2.02	2.51	3.07	3.73	4.57	5.46	6.5
x2 = 0.2264	2.08	2.58	3.1	3.86	4.65	5.62	6.61	7.85	9.2
x2 = 0.3051	2.84	3.54	4.32	5.15	6.3	7.5	8.79	10.4	12.1
x2 = 0.397	3.75	4.65	5.65	6.7	8.1	9.55	11.2	13.1	15.2
x2 = 0.506	4.72	5.77	6.86	8.3	9.96	11.8	13.7	15.7	18
x2 = 0.6372	5.69	6.77	8.36	9.95	11.7	13.6	15.7	18.2	20.7
x2 = 0.798	6.56	7.83	9.45	11.2	13.1	15.2	17.6	20.2	22.9

O=C1NS(=O)(=O)c2ccccc21 + CO + CC#N
solubility (g/100 g solution)
Conditions	x2 = 0.1002	x2 = 0.2003	x2 = 0.2998	x2 = 0.4002	x2 = 0.4998	x2 = 0.6003	x2 = 0.7001	x2 = 0.7995	x2 = 0.9003
293.15 K	5.52	7.2	8.84	9.66	10	10.1	9.63	8.67	7.25
298.15 K	5.88	7.96	9.73	10.6	11	11.1	10.6	9.56	8.07
303.15 K	6.65	9.04	10.9	11.9	12.5	12.5	12.1	11	9.1
308.15 K	7.35	9.93	12.1	13.2	13.8	14	13.6	12.1	10.1
313.15 K	8.31	11.2	13.3	14.7	15.4	15.6	15.1	13.9	11.7
318.15 K	9.32	12.7	15.2	16.8	17.6	17.7	17.2	15.8	13.3
323.15 K	10.6	14.1	16.7	18.4	19.3	19.6	19.1	17.6	15.1

CS(=O)(=O)c1ccc(C(O)C(CF)NC(=O)C(Cl)Cl)cc1 (configuration not stated) + CO + O
solubility (g/100 g solution)
Conditions	278.15 K	283.15 K	288.15 K	293.15 K	298.15 K	303.15 K	308.15 K	313.15 K	318.15 K
x2 = 0.05881	0.163	0.211	0.278	0.358	0.449	0.571	0.711	0.881	1.09
x2 = 0.1233	0.379	0.485	0.609	0.762	0.939	1.15	1.41	1.71	2.06
x2 = 0.1942	0.707	0.878	1.08	1.31	1.58	1.9	2.27	2.68	3.17
x2 = 0.2727	1.06	1.32	1.6	1.93	2.31	2.78	3.28	3.88	4.53
x2 = 0.3599	1.47	1.83	2.25	2.71	3.25	3.88	4.58	5.45	6.34
x2 = 0.4576	1.92	2.4	2.94	3.6	4.3	5.17	6.17	7.3	8.52
x2 = 0.5675	2.52	3.12	3.82	4.64	5.63	6.76	7.98	9.5	11
x2 = 0.6923	3.16	3.96	4.85	5.92	7.07	8.44	10.1	11.9	13.7
x2 = 0.835	3.91	4.85	5.98	7.23	8.65	10.3	12.2	14.2	16.5
